# Assay results from article PMC6657668, “Porcine Beta-Defensin 2 Provides Protection Against Bacterial Infection by a Direct Bactericidal Activity and Alleviates Inflammation via Interference With the TLR4/NF-κB Pathway” (Frontiers in Immunology, 2019).
# Where a SMILES comes first, the peptide text is derived from it.
# Tests used:
# S. Typhimurium [1] = assay: Body weight loss of mice infected with S. Typhimurium; conditions: PBD-2 expressed in TG mice; oral 2.5 × 10^8 CFU; days 1-5; n = 7; vs WT
# Experimental: Four infection experiments were conducted to determine the resistance to S. Typhimurium of the TG mice. For body weight measurements, 7 WT and 7 TG mice were orally administered with 2.5 × 10^8 CFU of S. Typhimurium, and the body weight of each mouse was measured on days 1, 2, 3, 4, and 5 after infection. For the detection of the tissue weight ratios, bacterial loads in tissues and tissue lesions after S. Typhimurium infection, 9 WT and 8 TG mice were orally administered with 2.5 × 10^8 CFU of S. Typhimurium. The spleen, caecum and body weights of the mice were weighed at 24 h post-infection. The bacterial loads in the tissues were also measured ([26]). The spleen and caecum were weighed and homogenized in cold PBS at a ratio of 4 ml per gram of tissue and coated plates. The bacterial numbers in the homogenates were counted by serially diluting the homogenates and spreading on plates. Caeca were harvested for histopathological analysis by using the methods described above. The intestinal damage, including epithelial damage, submucosal oedema, and neutrophil aggregation, was observed.
# bacteria = conditions: ref [11], cited from earlier work
# Excerpt: Another fact is that some vi ...
# [2] = PBD-2 expressed in TG mice, uninfected, n ≥ 6, vs WT
# Experimental: After the mice were euthanized, blood samples of TG and WT mice were collected. Alanine aminotransferase, aspartate aminotransferase, albumin, globin, albumin/globin, total bilirubin, direct bilirubin, urea, creatinine, urea/creatinine, glucose, potassium, and sodium were analyzed using a blood routine analyser (Mindray, Shenzhen China). Their heart, liver, spleen, lung, kidney, brain and intestinal segments were harvested. The histological morphologies of the mice organs and the body and organ weights of male and female mice were characterized.
# (B) Comparison of body weights between TG and WT mice. (C) Comparison of weight ratios of organs, including heart, liver, spleen, lung, kidney, and brain (organ weight/body weight) between TG and WT mice. Data are represented as means ± SD (WT, n ≥ 6; TG, n ≥ 6).
# S. Typhimurium [3] = assay: Bactericidal activity assay (colony counting); conditions: 5000 CFU, 1 h, 37°C, n = 6
# Experimental: S. Typhimurium cells were cultured to mid-log phase (OD600nm = 0.7) in TSB. The cultures were centrifuged for 10 min at 1,000 × g, and the cell pellets were diluted in assay medium (10 mM phosphate, pH 7.0, with 1/100 TSB). The antimicrobial activities of PBD-2, TG serum and tissue homogenates were determined by colony counting assay. The mice serum, caecum, colon, or duodenum homogenates were heat inactivated at 56°C for 20 min to exclude the possible effect of complement in tissues. As a control, PBD-2 solution in PBS (50 μg/ml) was also heat-treated at 56°C for 20 min. Afterwards, 5000 CFUs of S. Typhimurium were mixed with 100 μl of each sample in a centrifuge tube at 37°C for 1 h. After incubation, 10 serial dilutions from 10 to 1,000-fold in TSB were conducted, and the diluted bacterial cultures were transferred onto TSA plates and incubated at 37°C for 24 h. The numbers of bacterial CFUs were recorded.
# NF-κB [4] = assay: mRNA level of NF-κB in RAW 264.7 cells (RT-PCR); format: cell-based, mouse; conditions: LPS 1 μg/ml with PBD-2 10 μg/mL, 4 h; n = 6
# Experimental: The cDNA of the RAW 264.7 cells treated with LPS (1 μg/ml) alone or together with PBD-2 (10 μg/mL) for 4 h (n = 6 each group) was used as a template by using the primers NF-κB-01 ([…]) and NF-κB-02 ([…]) and the primers GAPDH-01 and GAPDH-02 for the housekeeping gene GAPDH to detect the expression level of NF-κB. The relative expression level of NF-κB is shown as 2^−ΔCt (mean ± SEM), where ΔCt = Ct NF−κB−CtGAPDH. The protocol consisted of 40 replication cycles. The Ct values above 34 cycles were considered non-detectable.
# NF-κB [5] = assay: NF-κB promoter activity, luciferase reporter assay in RAW 264.7 cells; format: cell-based, mouse; conditions: n = 6
# Experimental: A luciferase reporter assay was used to detect the promoter activity of NF-κB. RAW 264.7 cells were seeded in a 24-well plate for 24 h and then cotransfected with 800 ng/well of the NF-κB reporter plasmid (pGL3-Basic) and 20 ng/well of pLR-TK. WT […] luciferase (Rluc) served as the reporter gene control vector. […] In the inhibition assay, the cells were pre-treated with 1 μg/ml TLR4 inhibitor for 1 h and treated with LPS (1 μg/ml) alone or together with PBD-2 (10 μg/mL) for 24 h (n = 6 each group). Luciferase units were detected to show the promoter activity of NF-κB ([28]).
# RAW 264.7 cells = assay: Cytokine levels of RAW 264.7 cells after treatment with LPS (ELISA), with or without pathway inhibitor; format: cell-based, mouse; conditions: for IL-1β level / IL-6 level / TNF-α level: LPS 1 μg/ml
# Experimental: RAW 264.7 cells and RAW 264.7 cells stably expressing PBD-2 were pre-treated with S. Typhimurium at MOI = 10:1 for 1 h or with LPS (1 μg/ml) for 16 h, washed with PBS twice and incubated with RPMI 1640 that contained PBS or PBD-2 (10 μg/mL) for 16 h. RAW 264.7 cells stably expressing PBD-2 were maintained in RPMI 1640 that contained PBS for 16 h (n = 6 for each group). The expression levels of proinflammatory cytokines in the cell culture supernatant were determined through ELISA in accordance with the manufacturer's instruction.
# In the inhibition assay, RAW 264.7 cells were pre-treated with 4 μg/ml NF-κB inhibitor (Celastrol, # ant-cls, InvivoGen®, San Diego, CA, USA) or 1 μg/ml TLR4 inhibitor (CLI-095, # tlrl-cli95, InvivoGen®, San Diego, CA, USA) for 1 h. Subsequently, RAW 264.7 cells were treated with LPS (1 μg/ml) alone or together with PBD-2 (10 μg/mL) for 16 h (n = 6 each group). RAW 264.7 cells treated with PBS were used as control. The levels of the cytokines in the supernatant of the cells were detected through ELISA.
# TLR4 = molecular target: T1, TLR4 (Mus musculus, UniProt Q9QUK6); assay: Interaction with TLR4, far-Western blot; format: binding; conditions: PBD-2 10 μg/ml, 37°C, 2 h
# T1 construct: purchased Cloud-clone, Wuhan, China RPA753Mu01
# T1 sequence (Q9QUK6 26-835): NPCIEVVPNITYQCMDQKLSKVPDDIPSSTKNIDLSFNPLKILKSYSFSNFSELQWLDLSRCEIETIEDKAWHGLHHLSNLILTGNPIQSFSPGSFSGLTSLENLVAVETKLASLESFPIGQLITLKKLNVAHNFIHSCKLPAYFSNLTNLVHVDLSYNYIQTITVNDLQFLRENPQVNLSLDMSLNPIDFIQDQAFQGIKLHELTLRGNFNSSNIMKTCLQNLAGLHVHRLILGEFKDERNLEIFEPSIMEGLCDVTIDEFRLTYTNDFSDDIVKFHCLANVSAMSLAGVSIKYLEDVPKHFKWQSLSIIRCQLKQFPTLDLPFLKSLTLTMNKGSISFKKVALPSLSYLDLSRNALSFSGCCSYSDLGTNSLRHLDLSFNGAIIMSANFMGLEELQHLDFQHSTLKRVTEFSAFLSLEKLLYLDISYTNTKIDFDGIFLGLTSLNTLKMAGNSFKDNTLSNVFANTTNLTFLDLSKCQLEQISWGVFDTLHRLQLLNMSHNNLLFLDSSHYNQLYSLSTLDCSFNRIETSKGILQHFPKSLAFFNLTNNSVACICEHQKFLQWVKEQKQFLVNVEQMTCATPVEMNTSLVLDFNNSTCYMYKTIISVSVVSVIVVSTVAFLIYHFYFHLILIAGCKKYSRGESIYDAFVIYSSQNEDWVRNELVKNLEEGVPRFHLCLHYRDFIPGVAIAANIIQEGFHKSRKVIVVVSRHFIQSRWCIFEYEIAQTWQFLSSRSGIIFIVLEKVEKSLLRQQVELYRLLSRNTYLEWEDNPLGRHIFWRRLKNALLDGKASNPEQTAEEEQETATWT
# Experimental: (§1) TLR4 and BSA proteins as a control were subject to SDS-PAGE and electro-transferred onto a PVDF membrane. The PVDF membrane was blocked with 10 μg/ml BSA in PBST at 37°C for 2 h, washed five times with PBST and incubated with PBST that contained 10 μg/ml PBD-2 or 10 μg/ml BSA as a control at 37°C for 2 h. After the membranes were washed, the PVDF membrane was incubated with anti-PBD-2 antisera (with a titer 1:500,000) at 37°C for 2 h and washed five times with PBST. The membrane was then incubated with the secondary antibodies, namely, goat anti-mouse IgG (# AS003, ABclonal®, Wuhan, China), at 37°C for 2 h and washed five times with PBST. Lastly, immune-reactive bands were detected using an ECF Western blot system (Tanon 5200 Multi, Shanghai, China).
# [6] = system: dextran sodium sulfate (DSS) in mice; conditions: ref [33], cited from earlier work
# Excerpt: The antibiotic resistance of pathogenic bacteria has become a global threat ([30]). Defensins are natural peptides secreted by many species and implicated in resisting bacterial infection ([31]). PBD-2 is one of the defensins expressed in pigs. […] The invasion of S. Typhimurium can increase the expression of PBD-2 in porcine epithelial cells ([32]). […] PBD-2 also improves the growth perf ... || The colitis caused by S. Typhimurium mainly results from intestinal mucosal inflammation after the breakage of intestinal epithelial barrier by pathogens ([26]). […] AMPs have various structures which may lead to their different act ...
# BSA = assay: Interaction with BSA (control), far-Western blot; format: binding, bovine; conditions: PBD-2 10 μg/ml, 37°C, 2 h
# Experimental: as §1
# [7] = PBD-2 expressed by RAW 264.7–PBD-2 cells, n = 6
# [8] = synthetic PBD-2 10 μg/mL with LPS 1 μg/ml, 16 h, after CLI-095 1 μg/ml, n = 6
# [9] = synthetic PBD-2 10 μg/mL with LPS 1 μg/ml, 16 h, after Celastrol 4 μg/ml, n = 6
# [10] = synthetic PBD-2 10 μg/mL, 16 h, n = 6
smiles,measurement,setting,value
"CC[C@H](C)[C@H](NC(=O)[C@@H]1CSSC[C@@H]2NC(=O)[C@@H]3CCCN3C(=O)[C@H](CO)NC(=O)[C@H](Cc3ccccc3)NC(=O)[C@H](CC(N)=O)NC(=O)[C@@H]3CSSC[C@H](NC(=O)[C@H]([C@@H](C)O)NC(=O)CNC(=O)[C@H](CCC(=O)O)NC(=O)[C@H]([C@@H](C)CC)NC(=O)[C@H](CCCNC(=N)N)NC(=O)[C@H](CC(N)=O)NC(=O)[C@H](Cc4ccccc4)NC(=O)[C@H](CC(C)C)NC(=O)[C@@H]4CCCN4C2=O)C(=O)N[C@@H](Cc2ccc(O)cc2)C(=O)N[C@@H](CO)C(=O)NCC(=O)N[C@@H](CCCCN)C(=O)N[C@@H](C)C(=O)N[C@@H](CCCCN)C(=O)N[C@@H](CSSC[C@H](NC(=O)[C@@H](NC(=O)[C@H](Cc2ccc(O)cc2)NC(=O)[C@H](Cc2c[nH]cn2)NC(=O)[C@@H](N)CC(=O)O)[C@@H](C)CC)C(=O)N[C@@H](C)C(=O)N[C@@H](CCCCN)C(=O)N[C@@H](CCCCN)C(=O)NCC(=O)NCC(=O)N[C@@H]([C@@H](C)O)C(=O)N3)C(=O)N1)C(=O)N[C@@H](CCCNC(=N)N)C(=O)O [PBD-2, Porcine beta-defensin 2] (HELM PEPTIDE1{D.H.Y.I.C.A.K.K.G.G.T.C.N.F.S.P.C.P.L.F.N.R.I.E.G.T.C.Y.S.G.K.A.K.C.C.I.R}$PEPTIDE1,PEPTIDE1,5:R3-34:R3|PEPTIDE1,PEPTIDE1,12:R3-27:R3|PEPTIDE1,PEPTIDE1,17:R3-35:R3$$$V2.0; N-terminus and C-terminus assumed)",body weight loss,S. Typhimurium [1],less degree of body weight loss from day 2 onwards (p < 0.05)
same,"antibacterial activity, concentration dependence",bacteria; in vitro,positively related to its concentration
same,bactericidal activity in vitro,bacteria,high and broad spectrum of bactericidal activity in vitro
same,ratio of organ weight to total body weight,"[2]; heart, liver, spleen, lung, kidney, brain",did not significantly differ from the WT mice in terms of body weight (Figure S1B) and the ratio of organ weight to total body weight
same,body weight,[2],did not significantly differ from the WT mice in terms of body weight
same,"number of survived bacteria, caecum homogenate","S. Typhimurium [3]; heat-inactivated (56°C, 20 min) caecum homogenate of PBD-2 TG mice vs WT",the number of the survived bacteria in the serum and tissue homogenates of the WT mice was significantly higher than that in the serum and tissue homogenates of the TG mice (p < 0.05)
same,"number of survived bacteria, colon homogenate","S. Typhimurium [3]; heat-inactivated (56°C, 20 min) colon homogenate of PBD-2 TG mice vs WT",the number of the survived bacteria in the serum and tissue homogenates of the WT mice was significantly higher than that in the serum and tissue homogenates of the TG mice (p < 0.05)
same,"number of survived bacteria, serum","S. Typhimurium [3]; heat-inactivated (56°C, 20 min) serum of PBD-2 TG mice vs WT",the number of the survived bacteria in the serum and tissue homogenates of the WT mice was significantly higher than that in the serum and tissue homogenates of the TG mice (p < 0.05)
same,mRNA levels of NF-κB after LPS induction,NF-κB [4],reduce the mRNA levels of NF-κB after LPS induction (p < 0.01)
same,NF-κB promoter activity after LPS induction,"NF-κB [5]; LPS 1 μg/ml with PBD-2 10 μg/mL, 24 h",inhibited the promoter activities of NF-κB after LPS induction (p < 0.01)
same,NF-κB promoter activity in the presence of TLR4 inhibitor,"NF-κB [5]; PBD-2 10 μg/mL with LPS 1 μg/ml, 24 h, after CLI-095 1 μg/ml","did not influence the NF-κB promoter activity in the presence of TLR4 inhibitor (NS, p > 0.05)"
same,inhibitory effect on NF-κB promoter activity after pre-incubation with PBD-2,"NF-κB [5]; PBD-2 10, 30, and 60 μg/ml for 30, 60, 120, or 240 min, then LPS",positively correlated with dose and incubation time with PBD-2 (p < 0.05)
same,IL-1β level,RAW 264.7 cells; [7],significantly reduced in RAW 264.7 cells supplemented with PBD-2 or in the RAW 264.7–PBD-2 cells (p < 0.05)
same,IL-6 level,RAW 264.7 cells; [7],significantly reduced in RAW 264.7 cells supplemented with PBD-2 or in the RAW 264.7–PBD-2 cells (p < 0.05)
same,TNF-α level,RAW 264.7 cells; [7],significantly reduced in RAW 264.7 cells supplemented with PBD-2 or in the RAW 264.7–PBD-2 cells (p < 0.05)
same,"cytokine secretion, PBD-2 itself",RAW 264.7 cells; PBD-2 without stimulus (Figures 5A–C),did not affect cytokine secretion
same,inflammatory responses of RAW 264.7 cells expressing PBD-2 versus supplemented with synthetic PBD-2,RAW 264.7 cells; S. Typhimurium or LPS (Figures 5A–C),lower than those of the cells supplemented with synthetic PBD-2
same,secretion of IL-1β in the presence of TLR4 inhibitor,RAW 264.7 cells; [8],"did not affect the secretion of these cytokines in the presence of TLR4 inhibitor (NS, p > 0.05)"
same,secretion of IL-6 in the presence of TLR4 inhibitor,RAW 264.7 cells; [8],"did not affect the secretion of these cytokines in the presence of TLR4 inhibitor (NS, p > 0.05)"
same,secretion of TNF-α in the presence of TLR4 inhibitor,RAW 264.7 cells; [8],"did not affect the secretion of these cytokines in the presence of TLR4 inhibitor (NS, p > 0.05)"
same,secretion of IL-1β in the presence of NF-κB inhibitor,RAW 264.7 cells; [9],"did not affect the secretion of these cytokines in the presence of NF-κB inhibitor (NS, p > 0.05)"
same,secretion of IL-6 in the presence of NF-κB inhibitor,RAW 264.7 cells; [9],"did not affect the secretion of these cytokines in the presence of NF-κB inhibitor (NS, p > 0.05)"
same,secretion of TNF-α in the presence of NF-κB inhibitor,RAW 264.7 cells; [9],"did not affect the secretion of these cytokines in the presence of NF-κB inhibitor (NS, p > 0.05)"
same,IL-1β level,RAW 264.7 cells; [10],significantly reduced in RAW 264.7 cells supplemented with PBD-2 or in the RAW 264.7–PBD-2 cells (p < 0.05)
same,IL-6 level,RAW 264.7 cells; [10],significantly reduced in RAW 264.7 cells supplemented with PBD-2 or in the RAW 264.7–PBD-2 cells (p < 0.05)
same,TNF-α level,RAW 264.7 cells; [10],significantly reduced in RAW 264.7 cells supplemented with PBD-2 or in the RAW 264.7–PBD-2 cells (p < 0.05)
same,binding to TLR4 on PVDF membrane,TLR4,could bind to TLR4
same,mucosal damage caused by DSS,[6]; mice,alleviate mucosal damage caused by dextran sodium sulfate (DSS) in mice
same,"DSS-induced inflammation, NF-κB signaling",[6],suppresses the DSS-induced inflammation by suppressing the NF-κB signaling pathway
same,inflammation in DSS-induced colitis,[6],attenuates inflammation in DSS-induced colitis
same,binding to BSA on PVDF membrane,BSA,not to BSA
